The source of these data is US5220042A, “1,4-benzoquinone derivatives and benzene derivatives, and process for preparing the same” (priority 1984, dated 1993).

Like-named read-outs stand apart in the source and are kept apart here.

In one test the target is T1, 5-lipoxygenase (Cavia porcellus, UniProt A0A286X958).
T1 construct: endogenous in cells; host or cells: guinea pig (Hartley strain) casein-elicited peritoneal exudate cells, intact cell suspension
T1 sequence (A0A286X958 1-674): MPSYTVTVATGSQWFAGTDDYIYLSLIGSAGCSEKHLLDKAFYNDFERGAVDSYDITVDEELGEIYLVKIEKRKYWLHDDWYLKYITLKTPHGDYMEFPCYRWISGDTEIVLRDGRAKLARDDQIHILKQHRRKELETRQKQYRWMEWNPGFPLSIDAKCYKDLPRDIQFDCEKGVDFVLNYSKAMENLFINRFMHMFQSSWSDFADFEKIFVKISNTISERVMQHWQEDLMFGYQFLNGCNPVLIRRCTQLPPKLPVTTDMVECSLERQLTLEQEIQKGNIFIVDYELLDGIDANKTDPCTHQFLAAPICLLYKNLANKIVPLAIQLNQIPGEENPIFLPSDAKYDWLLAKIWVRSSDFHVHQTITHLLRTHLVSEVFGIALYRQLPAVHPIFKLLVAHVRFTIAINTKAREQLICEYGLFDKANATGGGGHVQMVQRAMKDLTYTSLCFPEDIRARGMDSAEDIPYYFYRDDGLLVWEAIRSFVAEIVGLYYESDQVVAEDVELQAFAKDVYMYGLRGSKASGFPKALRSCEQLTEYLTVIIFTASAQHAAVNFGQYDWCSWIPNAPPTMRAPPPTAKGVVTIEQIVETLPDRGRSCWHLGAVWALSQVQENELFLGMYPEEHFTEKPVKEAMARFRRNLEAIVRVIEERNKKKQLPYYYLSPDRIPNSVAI
In words: 5-Lipoxygenase inhibitory activity (conversion of 14C-arachidonic acid to 5-HETE) in guinea pig peritoneal exudate cells. The note with it: read-out: inhibition ratio (%) of 5-lipoxygenase activity; for inhibition at 30 µM: concentration 3 × 10^-5 M; for inhibition at 3 µM: concentration 3 × 10^-6 M; for inhibition at 10 µM: concentration 10^-5 M; for inhibition at 1 µM: concentration 10^-6 M; for inhibition at 0.3 µM: concentration 3 × 10^-7 M; for inhibition at 0.1 µM: concentration 10^-7 M. Format: cell-based, guinea pig (Hartley strain). How it is done: 5-Lipoxygenase inhibitory activity of the present compounds was determined by a method according to procedures described in "J. Biol. Chem., Vol. 256, pages 4156-4159, (1981, Ibid. Vol. 258, pages 5754-5758 (1983).
(1) Preparation of Test Cells
A guinea pig (Hartley strain) (500-650 g body weight) was intraperitoneally administered with 2%-casein solution in 3/50 the volume of body weight. 14 Hours after the administration, the animal was sacrificed by bleeding and the peritoneal cavity was washed with Dulbecco's phosphate buffered saline (PBS) containing 3 U/ml of heparin and the exudate cells were harvested. The sample of cells was washed twice with Dulbecco's PBS (-), then the cells were suspended in Dulbecco's PBS (-), containing 1 mM of calcium chloride and 5.5 mM of glucose, so as to make a suspension having the concentration of 2.5×10^7 cells/ml.
To 0.2 ml of the above-mentioned cell suspension was added 10^-5 M of Indomethacine, and incubated at 30° C. for 2 minutes. Each of the appropriate concentrations of test compounds was added to the suspension respectively, further incubated for 2 minutes. Next, 10 μm of Ionophore A23187 (manufactured by Calbiochem-Behring, San Diego, Calif., U. S. A) was added to the suspension, further, 10 μm of ^14 C-arachidonic acid (manufactured by Amersham Japan, Ltd., Tokyo, Japan) was added and initiated the reaction. 3 Minutes after the initiation of the reaction, 0.1 ml of 0.2M-citric acid was added so as to terminate the reaction. 1.2 Milliliters of ethyl acetate was added to the reaction mixture and shaked for 5 minutes. The reaction mixture was centrifuged at 3,000 rpm for 5 minutes so as to separate the organic layer from the aqueous layer. 1 Milliliter of the organic layer (the upper layer) was dehydrated by passing through a mini-column packed with anhydrous sodium sulfate. The dehydrated organic layer was dried under nitrogen gas stream. The residue obtained was dissolved in ethyl acetate, and the total amount of the ethyl acetate solution was spotted onto thin layer chromochromatography (TCL) plate (Art. 11845 manufactured by E. Merck A. G.). The TCL was carried out with a mixed solvent of diethyl ether:petroleum:ether:acetic acid (50:50:1 volume/volume), then the radioactive metabolites on the plate were detected by using "Ultrafilm ^3 H" (a trademark for a X-ray film, manufactured by LKB Co.). Each fractions corresponding to the metabolites was scraped in to a scintillation vial, and 5 ml of "Scintilator ACS-II" (manufactured by Amersham Japan, Ltd.), was added then the radio-activity was determined by means of a liquid scintillation counter.

Test [1] concerns SRS-A release from lung fragments. The test can be described thus: Inhibition of SRS-A release from sensitized guinea pig lung fragments. Format: cell-based, guinea pig (Hartley strain). The note with it: Cavia porcellus. As to the method: Inhibitory activities on the release of SRS-A and histamine of the present compounds were determined.
A male guinea pig (Hartley strain) (body weight: about 300 g) was sensitized by a method according to P. Anderson: "Int. Archs. Allergey appln. Immunol., Vol. 64, pages 249-258 (1981). Thus, 30 mg/kg of cyclophosphamide was intraperitoneally administered to the guinea pig, and 2 days after 1 microgram of ovalbumin (manufactured by Sigma Chemical Co., St. Louis, Mo. U. S. A.) together with 10 mg of aluminium hydroxide gel were intraperitoneally administered so as to have the animal sesitized.
50 Days after the sesitization, the animal was killed by exsanguination, and the lung was isolated from the animal and was perfused with 20 ml of Tyrode's solution, then immersed in an ice-cooled Tyrode's solution. The parenchyma of the lung was cut by using McIlwain-type tissue chopper to make it into fragments of lung having 2 mm square and the fragments were washed with Tyrode's solution. 400 Milligrams of sectiles of lung were suspended in 3.6 ml of Tyrode's solution, and this suspension was preincubated at 37° C. for 5 minutes, then 4 microliters of dimethyl sulfoxide solution of the test compound, in the case of control 4 microliters of dimethyl sulfoxide alone was added to the suspension. 5 Minutes after, 0.4 ml of 100 micrograms/ml of ovalbumin solution added so as to release SRS-A for 10 minutes. The suspension was ice-cooled and filtered through gauze, the filtrate was centrifuged at 2,000 rpm for 10 minutes and the supernatant was collected. The supernatant was stored in freezed state at -80° C. until bio-assay was conducted.
Amounts of SRS-A and histamine contained in the supernatant were determined by bio-assay using ileum of guinea pig.
A piece of the ileum (2-3 cm of length) positioned from 15-25 cm from the opening portion of ileocecum was isolated from a male guinea pig (Hartley strain) (body weight: 400-600 g) which was fasted for 24 hours. The piece of ileum was hanged vertically in a Magnus tube which was filled with 10 ml of Tyrode's solution containing 10^-7 M of atropine sulfate under air stream conditions. The isotonic contraction of the piece of the ileum was measured at 0.5 g of load by using an isotonic transducer "TD-112S" (manufactured by Nihon Koden Co., Ltd.). The measurements were carried out after the reaction to histamine of the piece of ileum was kept constant. Bioassay of histamine was measured by using the value of contraction shown in 30 seconds after the addition of the supernatant. Bioassay of on SRS-A was measured by using the value of contraction shown at 2 minutes after the addition of the supernatant in the presence of 10^-6 M of pyrilamine (manufactured by Sigma Chemical Co.), and compared with the standard curve of crude SRS-A released from the fragments of the lung.

[2] abbreviates: Table 2B, read-out: Inhibitory activities on SRS-A (%).
The mark [3] stands for this setting: Table 2B, 3 μM, read-out: Inhibitory activities on SRS-A (%).
Setting [4] is: Table 2B, 30 μM, read-out: Inhibitory activities on SRS-A (%).

As for `CCCC/C=C\CCCCCCCCCC1=CC(=O)C=C(OC)C1=O` [Test Compound No. 1, 5-Methoxy-3-(Z-10-pentadecenyl)-1,4-benzoquinone], at 5-lipoxygenase, the inhibition at 30 µM was found to be 87%, the inhibition at 3 µM amounted to 13%, the inhibition at 10 µM worked out at 81% and the inhibition at 1 µM is 10%.
As to `COC1=CC(=O)C(O)=C(CCCCCCC/C=C\CCCCCCCC2=C(O)C(=O)C(C)=C(OC)C2=O)C1=O` [Test Compound No. 3, 1-(5-Methoxy-2-hydroxy-1,4-benzoquinon-3-yl)-16-(5-methoxy-2-hydroxy-6-methyl-1,4-benzoquinon-3-yl)-Z-8-hexadecene], on 5-lipoxygenase, the inhibition at 30 µM worked out at 96%, the inhibition at 3 µM came out at 95%, the inhibition at 0.3 µM came out at 44% and the inhibition at 10 µM is 97%. Further, on 5-lipoxygenase, the inhibition at 1 µM was 86% and the inhibition at 0.1 µM turned out to be 4%.
For the molecule `CCCCCCCCCCCCCC1=C(OC)C(=O)C=C(OC)C1=O` [Test Compound No. 8, 2,5-Dimethoxy-3-tridecanyl-1,4-benzoquinone], at 5-lipoxygenase, the inhibition at 3 µM came to 40%, the inhibition at 10 µM turned out to be 74% and the inhibition at 1 µM is 12%.
With `COC1=CC(=O)C(O)=C(CCCCCCC/C=C\CCCCCCCc2cc(O)cc(O)c2)C1=O` [Test Compound No. 7, 1-(2-Hydroxy-5-methoxy-1,4-benzoquinon-3-yl)-16-(3,5-dihydroxyphenyl)-Z-8-hexadecene], on 5-lipoxygenase, the inhibition at 3 µM turned out to be 80%, the inhibition at 0.3 µM came out at 28%, the inhibition at 1 µM is 70% and the inhibition at 0.1 µM came out at 24%.
In the same order, the values of `COC1=CC(=O)C(O)=C(CCCCCCCC2OC2CCCCCCCC2=C(O)C(=O)C=C(OC)C2=O)C1=O` (stereo not shown) [Test Compound No. 4, 1,16-bis(5-Methoxy-2-hydroxy-1,4-benzoquinon-3-yl)-8,9-epoxyhexadecane] are 96%, 92%, 96% and 66%.
On to `CCCC/C=C\CCCCCCCC1=C(O)C(=O)C=C(OC)C1=O` [Test Compound No. 2, 5-Methoxy-2-hydroxy-3-(Z-8-tridecenyl)-1,4-benzoquinone], for which, at 5-lipoxygenase, the inhibition at 0.3 µM was found to be 22%, the inhibition at 1 µM turned out to be 67% and the inhibition at 0.1 µM was determined as 10%.
With `COC1=CC(=O)C(OC)=C(CCCC2=C(OC)C(=O)C=C(OC)C2=O)C1=O` [Test Compound No. 27, 2,2'-Trimethylenebis(3,6-dimethoxy-1,4-benzoquinone)], in test [1] (setting [2]), the inhibition at 1 µM amounted to 14.9% and the inhibition at 10 µM came to 83.3%.
The corresponding values for `COC1=CC(=O)C(OC)=C(CCCOCCC2=C(OC)C(=O)C=C(OC)C2=O)C1=O` [Test Compound No. 25, 2-(3,6-Dimethoxy-1,4-benzoquinon-2-yl)ethyl 3-(3,6-dimethoxy-1,4-benzoquinon-2-yl)propyl ether] are 52.4% and 94.4%.
In the same order, the values of `NC1=CC(=O)C(N)=C(CCCCCC2=C(N)C(=O)C=C(N)C2=O)C1=O` [Test Compound No. 52, 2,2'-Pentamethylenebis(3,6-diamino-1,4-benzoquinone)] are 10% and 16.2%.
In the same order, the values of `COC1=CC(=O)C(O)=C(CCCCCC2=C(O)C(=O)C=C(OC)C2=O)C1=O` [Test Compound No. 51, 2,2'-Pentamethylenebis(3-hydroxy-6-methoxy-1,4-benzoquinone)] are 11.8% and 60.8%.
Turning to `COC1=CC(=O)C(O)=C(CCCCCCC/C=C\CCCCCCCc2cc(O)c(C)c(O)c2)C1=O` [Test Compound No. 6, 1-(2-Hydroxy-5-methoxy-1,4-benzoquinon-3-yl)-16-(4-methyl-3,5-dihydroxyphenyl)-Z-8-hexadecene], at 5-lipoxygenase, the inhibition at 0.3 µM was found to be 29%, the inhibition at 1 µM amounted to 58% and the inhibition at 0.1 µM came out at 7%.
Turning to `CCCCC#CCCCC1=C(OC)C(=O)C=C(OC)C1=O` [Test Compound No. 35, 2,5-Dimethoxy-3-(4-nonynyl)-1,4-benzoquinone], the inhibition at 3 µM in test [1] (setting [3]) was 64.9%. In test [1] (setting [4]), the inhibition at 30 µM turned out to be 96%.
In the case of `COC1=CC(=O)C(OC)=C(CCCCCCCC#CCCCCCCCC2=C(OC)C(=O)C=C(OC)C2=O)C1=O` [Test Compound No. 20, 2,2'-(8-Hexadecynylene)bis(3,6-dimethoxy-1,4-benzoquinone)], the inhibition at 3 µM amounted to 14.5% in test [1] (Table 2, dose 3 μM, read-out: Inhibition ratio (%) SRS-A) and 14.5% in test [1] (setting [3]). Also, the inhibition at 30 µM in test [1] (Table 2, dose 30 μM, read-out: Inhibition ratio (%) SRS-A) turned out to be 24.1%; in test [1] (setting [4]), 24.1%.
As to `COC1=CC(=O)C(OC)=C(CC2=C(OC)C(=O)C=C(OC)C2=O)C1=O` [compound 22], in test [1] (setting [2]), the inhibition at 1 µM came to 37.6% and the inhibition at 10 µM is 85.4%.
